Tested on: wild-type (WT) murine embryonic fibroblasts (MEFs)
Assay: Untargeted LC/MS/MS proteomics of EVs from WT MEFs exposed 24 hours to drug, compared with untreated WT MEFs
Format: cell-based, mouse
Method: Methods for isolation and purification of exosomes and extracellular vesicles (EV) were extensively reviewed. Experiments were performed to arrive at a robust and reproducible protocol. The protocol used herein is that set forth in Théry et al, 2006, which is incorporated by reference for it teaching of this protocol. This protocol involves depleting serum-derived EVs from cell culture media by overnight ultracentrifugation and exchanging media for 1% FBS EV-depleted media. Media is then collected from cells following a 24-hour conditioning period and EVs are isolated by 18-hour ultracentrifugation at 100,000 g (FIG. 1A).
EVs were isolated from media of cultured murine embryonic fibroblasts (MEFs) prepared in-house according to protocols described by Xu 2005 from DYT1 knockin mice (Tor1a^delGAG/+) (Goodchild R E, et al. (2005) Neuron. 48:923-932) and littermate wild-type (WT) controls. The cultured MEFs from the DYT1 mice were exposed for 24 hours to Ritonavir (RTV) while the MEFs from WT mice were exposed to vehicle, ISRIB, or Salubrinal (SAL). The EVs isolated from these WT cells and DYT1 were characterized by untargeted proteomics and RNA-seq to identify differentially expressed proteins and RNAs as candidate biomarkers. Experimenter and Proteomics core staff were blinded to genotype of cell cultures throughout preparation and analysis phases. EV isolation was confirmed by Western immunoblot documenting presence of the exosomal marker (TSG101) and absence of the endoplasmic reticulum (ER) marker (CANX) (FIG. 1B (Cohort 1) and FIG. 1C (Cohort 2)).
Following the bicinchoninic acid assay (BCA) analysis and Western immunoblot of a portion of samples for QC, 11.6 μg-129.2 μg of EV protein lysates in RIPA buffer were sent to the Duke Proteomics and Metabolomics Shared Resource core facility for LC/MS/MS quantitative proteomic analysis. Samples were first normalized to 20 μg and spiked with undigested casein at a total of 40 fmol/μg, 80 fmol/μg, or 160 fmol/μg, then reduced with 10 mM dithiolthreitol for 30 minute at 80° C. and alkylated with 20 mM iodoacetamide for 30 minutes at room temperature. Next, the samples were supplemented with a final concentration of 1.2% phosphoric acid and 741 μL of S-Trap (Protifi) binding buffer (90% MeOH/100 mM […]). Proteins were trapped on the S-Trap, digested using 20 ng/μL sequencing grade trypsin (Promega) for 1 hour at 47° C., and eluted using 50 mM TEAB, followed by 0.2% FA, and lastly using 50% CAN/0.2% FA. All samples were then lyophilized to dryness and resuspended in 40 μL 1% TFA/2% acetonitrile containing 12.5 fmol/μL yeast alcohol dehydrogenase (ADH_YEAST). A QC Pool was created from 3 uL of each sample. All QC Pools were run periodically throughout the acquisition period.
Quantitative LC/MS/MS was performed on 2 μL of each sample, using a nanoAcquity UPLC system (Waters Corp) coupled to a Thermo Orbitrap Fusion Lumos high resolution accurate mass tandem mass spectrometer (Thermo) via a nanoelectrospray ionization source. Briefly, the sample was first trapped on a Symmetry C18 20 mm×180 μm trapping column (5 μL/min at 99.9/0.1 v/v water/acetonitrile), after which the analytical separation was performed using a 1.8 μm Acquity HSS T3 C18 75 μm×250 mm column (Waters Corp.) with a 90 minute linear gradient of 5% to 30% acetonitrile with 0.1% formic acid at a flow rate of 400 nanoliters/minute (nL/min) with a column temperature of 55° C. Data collection on the Fusion Lumos mass spectrometer was performed in a data-dependent acquisition (DDA) mode of acquisition with a r=120,000 (@ m/z 200) full MS scan from m/z 375-1500 with a target AGC value of 2e5 ions. MS/MS scans were acquired at Rapid scan rate (Ion Trap) with an AGC target of 5e3 ions and a max injection time of 100 ms. The total cycle time for MS and MS/MS scans was 2 seconds. A 20 second dynamic exclusion was employed to increase depth of coverage. The total analysis cycle time for each sample injection was approximately 2 hours. […]

[1] = EV protein P09528, Ferritin heavy chain

## O=C(COc1ccc(Cl)cc1)NC1CCC(NC(=O)COc2ccc(Cl)cc2)CC1 (centres unmarked) [ISRIB]
EV protein Akr1b1 (P45376)
  ISRIB Direction Same as dE?: yes
  ISRIBvWT Z Score: −0.22
EV protein Aldh2 (P47738)
  ISRIB Direction Same as dE?: yes
  ISRIBvWT Z Score: −7.25
EV protein Cnn3 (Q9DAW9)
  ISRIBvWT Z Score: 2.76
EV protein Cnot1 (Q6ZQ08)
  ISRIB Direction Same as dE?: yes
  ISRIBvWT Z Score: −2.56
EV protein Col5a1 (Q88207)
  ISRIB Direction Same as dE?: yes
  ISRIBvWT Z Score: 0.06
EV protein Copb2 (Q55029)
  ISRIB Direction Same as dE?: yes
  ISRIBvWT Z Score: −1.11
EV protein Cryab (P23927)
  ISRIBvWT Z Score: 0.39
EV protein Cxadr (P97792)
  ISRIBvWT Z Score: 1.72
EV protein D3YXG0
  ISRIBvWT Z Score: −2.25
EV protein Dars (Q922B2)
  ISRIB Direction Same as dE?: yes
  ISRIBvWT Z Score: −1.13
EV protein Dctn2 (Q99KJ8)
  ISRIB Direction Same as dE?: yes
  ISRIBvWT Z Score: −0.53
EV protein Ddx3x (Q62167)
  ISRIB Direction Same as dE?: yes
  ISRIBvWT Z Score: −1.08
EV protein Ddx5 (Q61656)
  ISRIB Direction Same as dE?: yes
  ISRIBvWT Z Score: −0.92
EV protein Ddx39b (Q9Z1N5)
  ISRIB Direction Same as dE?: yes
  ISRIBvWT Z Score: −1.12
EV protein Dhx9 (Q70133)
  ISRIB Direction Same as dE?: yes
  ISRIBvWT Z Score: −1.27
EV protein Dhx15 (Q35286)
  ISRIB Direction Same as dE?: yes
  ISRIBvWT Z Score: −1.19
EV protein Esyt1 (Q3U7R1)
  ISRIBvWT Z Score: 0.18
EV protein Exoc4 (Q35382)
  ISRIB Direction Same as dE?: yes
  ISRIBvWT Z Score: −1.51
EV protein Fth1 P09528
  ISRIBvWT Z Score: −3.46
EV protein Fus (P56959)
  ISRIBvWT Z Score: 0.85
EV protein Gsto1 (Q09131)
  ISRIBvWT Z Score: 0.04
EV protein Hist1h3a (P68433)
  ISRIB Direction Same as dE?: yes
  ISRIBvWT Z Score: −0.97
EV protein Hnrnpf (Q9Z2X1)
  ISRIB Direction Same as dE?: yes
  ISRIBvWT Z Score: −0.18
EV protein Hnrnph1 (Q35737)
  ISRIBvWT Z Score: 2.47
EV protein Idh2 (P54071)
  ISRIB Direction Same as dE?: yes
  ISRIBvWT Z Score: −2.01
EV protein Impa1 (Q55023)
  ISRIBvWT Z Score: 1.73
EV protein Ipo7 (Q9EPL8)
  ISRIBvWT Z Score: 0.30
EV protein Ipo11 (Q8K2V6)
  ISRIB Direction Same as dE?: yes
  ISRIBvWT Z Score: −1.97
EV protein Itgb3 (Q54890)
  ISRIBvWT Z Score: 0.14
EV protein Itm2b Q89051
  ISRIBvWT Z Score: −2.13
EV protein Itpa (Q9D892)
  ISRIB Direction Same as dE?: yes
  ISRIBvWT Z Score: −1.25
EV protein Kpna4 (Q35343)
  ISRIB Direction Same as dE?: yes
  ISRIBvWT Z Score: −3.18
EV protein Lipg (Q9WVG5)
  ISRIB Direction Same as dE?: yes
  ISRIBvWT Z Score: −2.47
EV protein Ltbp1 (Q8CG19)
  ISRIB Direction Same as dE?: yes
  ISRIBvWT Z Score: 2.17
EV protein Mcm2 (P97310)
  ISRIB Direction Same as dE?: yes
  ISRIBvWT Z Score: −2.10
EV protein Mdk (P12025)
  ISRIBvWT Z Score: 1.33
EV protein Mtap (Q9CQ65)
  ISRIB Direction Same as dE?: yes
  ISRIBvWT Z Score: −0.85
EV protein Myo18a
  ISRIBvWT Z Score: 2.27
EV protein Nrbp1 (Q99J45)
  ISRIBvWT Z Score: 0.18
EV protein Otub1 (Q7TQ..)
  ISRIBvWT Z Score: 2.26
EV protein Otub1 (Q7TQB)
  ISRIB Direction Same as dE?: yes
  ISRIBvWT Z Score: −2.26
[1]
  ISRIB Direction Same as dE?: yes
  ISRIBvWT Z Score: −3.46
EV protein P27612, Phospholipase A-2-activating protein
  ISRIB Direction Same as dE?: yes

From patent US20230332232A1, “COMPOSITIONS AND METHODS FOR DIAGNOSING AND TREATING A DYSTONIA” (Duke University, priority 2020, published 2023)
